Source: patent publication US20070255357A1, “NASAL DECO[…] MICROBES” (Ondine International, Ltd., priority 2006, published 2007)

Tests used:
biofilms of MRSA = experiment: Photodisinfection of MRSA biofilms in vitro (methylene blue + Periowave laser); format: cell-based, Methicillin-resistant Staphylococcus aureus; conditions: biofilm; for reduction of MRSA: at least 0.02 wt % methylene blue, laser about 665-675 nm for at least 15 seconds (at least 2.25 J/cm^2)
From the text: (§1) Photodisinfection treatments using methods contemplated by the present invention have been tested against MRSA, Escherichia coli (E. coli), and Enterococcus fecalis (E. fecalis) in vitro and reached high levels of disinfection in within seconds to one minute. Photosensitizing composition comprising of methylene blue at various concentrations ranging from about 0.005 wt % to 0.1 wt % was applied to biofilms of MRSA, E. coli and E. fecalis for about ten seconds. These biofilms were then illuminated by a laser light system at a wavelength of about 665 nm to about 675 nm for a period from about 0 seconds to about 60 seconds (e.g., accumulated energy level of about 0 J/cm^2 to about 9 J/cm^2). The laser light system used was the Periowave™ system which includes a low-intensity laser with power at about 240 mW and the optical probe described in PCT Patent Publication No. WO2006115761.

E. coli biofilms = experiment: SEM evaluation of E. coli biofilms after photodisinfection; format: cell-based, Escherichia coli; conditions: about 0.1 wt % methylene blue, about 10 s contact; about 665-675 nm for about 30 seconds, Periowave laser; FIG. 36 vs FIG. 35
Experimental: (§2) Biofilms heavily colonized with one to three layers of Escherichia coli (E. coli) organisms were contacted with a photosensitizing composition comprising methylene blue at a concentration of about 0.1 wt % for about 10 seconds and then illuminated at a wavelength of about 665 nm to about 675 nm for a period from about 30 seconds using the Periowave™ laser. Thereafter, these biofilms and the controlled E. coli biofilms (e.g., no photodisinfection treatment) were incubated for three hours in 0.9% saline and then fixed in 10% Formalin for scanning electron microscope (SEM) evaluation.

biofilms of E. coli = experiment: Photodisinfection of E. coli biofilms in vitro (methylene blue + Periowave laser); format: cell-based, Escherichia coli; conditions: biofilm; for reduction of E. coli: at least 0.02 wt % methylene blue, laser about 665-675 nm for at least 15 seconds (at least 2.25 J/cm^2)
From the text: as §1

MRSA biofilms = experiment: SEM evaluation of MRSA biofilms after photodisinfection; format: cell-based, Methicillin-resistant Staphylococcus aureus; conditions: about 0.1 wt % methylene blue, about 10 s contact; about 665-675 nm for about 30 seconds, Periowave laser; FIG. 34 vs FIG. 33
Experimental: as §2, with “four” for “three”, “MRSA” for “Escherichia coli (E. coli)”, “MRSA” for “E. coli”, “overnight” for “for three hours”, “0.9 wt %” for “0.9%”, “10 wt %” for “10%”

otitis externa [1] = experiment: Photodisinfection of otitis externa treatment site (Examples V to VII); format: in vivo
Experimental: A photosensitizing composition comprising of methylene blue at a concentration of about 0.1 wt % is applied to the otitis externa treatment site. Light at a wavelength range from about 650 nm to about 680 nm is applied to the photosensitizing composition located within the otitis externa treatment site for a period from about 6 minutes to about 10 minutes using a laser with power at about 80 mW. The otitis externa was ameliorated.
A photosensitizing composition comprising of methylene blue at a concentration range of from about 0.001 wt % to about 0.1 wt % is applied to the otitis externa treatment site. Light at a wavelength range from about 650 nm to about 680 nm is applied to the photosensitizing composition located within the treatment site for a period from about 1 minute to about 20 minutes using a laser with power at a range from about 50 mW to about 300 mW. The otitis externa was ameliorated.
A photosensitizing composition comprising of toluidine blue at a concentration range of from about 0.001% wt % to about 0.1 wt % is applied to the otitis externa treatment site. Light at a wavelength range from about 620 nm to about 650 nm is applied to the photosensitizing composition located within the otitis externa treatment site for a period from about 1 minute to about 20 minutes using a laser with power at a range from about 50 mW to about 300 mW. The otitis externa was ameliorated.
For Examples V to VII, it was shown that there is a general inverse relationship between (1) the photosensitizer concentration and (2) the photodisinfection treatment time and/or the amount of power required for the light source. For example, higher concentration of photosensitizer requires less treatment time and/or lower light source power. Conversely, lower concentration of photosensitizer requires longer treatment time and/or higher light source power. Also, less treatment time requires higher concentration of photosensitizer and/or higher light source power.

biofilms of E. fecalis = experiment: Photodisinfection of E. fecalis biofilms in vitro (methylene blue + Periowave laser); format: cell-based, Enterococcus fecalis; conditions: biofilm
From the text: as §1

otitis externa [2] = experiment: Study on patients suffering otitis externa (photodisinfection); format: in vivo, human
Experimental: A study was conducted on patients suffering otitis externa. During the study, a photosensitizing composition comprising of methylene blue at a concentration of about 0.01 wt % was applied using a cotton swab to the treatment site as shown in FIG. 37. Thereafter and referring to FIGS. 38-39, light at a wavelength range from about 665 nm to about 675 nm was applied to the photosensitizing composition located within the treatment site 64 for a period from about 3 minutes to about 5 minutes (3-5 repetitive one minute cycles) using the Periowave™ laser light system.

[3] = methylene blue about 0.02-0.1 wt % and a low power laser (about 240 mW)

In the case of `CN(C)c1ccc2nc3ccc(=[N+](C)C)cc-3sc2c1` [methylene blue], the “reduction of MRSA” value (biofilms of MRSA; about 10 s contact) is reported as “at least three”, the “reduction of MRSA” value (biofilms of MRSA) is reported as “over 90%” and the “elimination of MRSA by photodisinfection” value (biofilms of MRSA; [3]) is reported as “effectively eliminated”. The “reduction of E. coli in SEM photograph vs controlled biofilm” value (E. coli biofilms) was “substantial reduction of E. coli”, the “reduction of E. coli” value (biofilms of E. coli; about 10 s contact) was “at least three” and the “reduction of E. coli” value (biofilms of E. coli) was “over 90%”. For the same compound, the “elimination of E. coli by photodisinfection” value (biofilms of E. coli; [3]) was “effectively eliminated”, the “reduction of MRSA in SEM photograph vs controlled biofilm” value (MRSA biofilms) was “substantial reduction of MRSA” and the “outcome of otitis externa” value (otitis externa [1]; Example V: about 0.1 wt % methylene blue, about 650-680 nm for about 6-10 minutes, laser about 80 mW) was “ameliorated”. The “outcome of otitis externa” value (otitis externa [1]; Example VI: about 0.001-0.1 wt % methylene blue, about 650-680 nm for about 1-20 minutes, laser about 50-300 mW) was “ameliorated”, the “reduction of E. fecalis” value (biofilms of E. fecalis; at least 0.02 wt % methylene blue, laser about 665-675 nm for at least 15 seconds (at least 2.25 J/cm^2)) was “over 90%” and the “elimination of E. Fecalis by photodisinfection” value (biofilms of E. fecalis; [3]) was “effectively eliminated”. For the same compound, the “outcome of severe otitis externa” value (otitis externa [2]; patients with severe otitis externa, about 2 to 5 additional treatments, same protocol, over about one to two weeks) was “also ameliorated” and the “outcome of otitis externa” value (otitis externa [2]; patients, about 0.01 wt % methylene blue by cotton swab, about 665-675 nm for about 3-5 minutes, Periowave laser, many patients) was “ameliorated”.
For `Cc1cc2nc3ccc(N(C)C)cc3[s+]c2cc1N.[Cl-]` [toluidine blue], the “outcome of otitis externa” value (otitis externa [1]; Example VII: about 0.001-0.1 wt % toluidine blue, about 620-650 nm for about 1-20 minutes, laser about 50-300 mW) was “ameliorated”.
